Legend:
[1] = tested on: crabgrass; test: Test B pre/postemergence crabgrass; type: in vivo, Digitaria sanguinalis; conditions: for Crabgrass plant response rating: scale of 0 to 10 where 0 is no effect and 10 is complete control
In short: (§1)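 Response is a visual 0-to-10 score relative to untreated plants, where 0 means no effect and 10 means complete control, taken twelve to sixteen days after application. Treatments went onto soil at planting and onto foliage of 1- to 4-leaf plants, using a surfactant-containing non-phytotoxic solvent.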

[2] = tested on: pigweed; test: Test B pre/postemergence pigweed; type: in vivo, Amaranthus retroflexus; conditions: for Redroot pigweed plant response rating: scale of 0 to 10 where 0 is no effect and 10 is complete control
In short: as §1

[3] = tested on: velvetleaf; test: Test B pre/postemergence velvetleaf; type: in vivo, Abutilon theophrasti; conditions: for Velvetleaf plant response rating: scale of 0 to 10 where 0 is no effect and 10 is complete control
In short: as §1

[4] = tested on: smallflower flatsedge; test: Test B flood test smallflower flatsedge; type: in vivo, Cyperus difformis
In short: (§2)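 Plants were grown to the 2-leaf stage before treatment with test chemical, then held in a greenhouse for twelve to sixteen days. Injury was visually rated against untreated controls on a 0–10 scale, where 0 is no effect and 10 is complete control.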

[5] = tested on: purple nutsedge; test: Test B pre/postemergence purple nutsedge; type: in vivo, Cyperus rotundus; conditions: for Nutsedge plant response rating: scale of 0 to 10 where 0 is no effect and 10 is complete control
In short: as §1

[6] = tested on: blackgrass; test: Test B pre/postemergence blackgrass; type: in vivo, Alopecurus myosuroides; conditions: for Blackgrass plant response rating: scale of 0 to 10 where 0 is no effect and 10 is complete control
In short: as §1

[7] = tested on: bedstraw; test: Test B pre/postemergence bedstraw; type: in vivo, Galium aparine; conditions: Rate 500 g/ha, scale of 0 to 10 where 0 is no effect and 10 is complete control
In short: as §1

[8] = tested on: cocklebur; test: Test B pre/postemergence cocklebur; type: in vivo, Xanthium strumarium; conditions: for Cocklebur plant response rating: scale of 0 to 10 where 0 is no effect and 10 is complete control
In short: as §1

[9] = tested on: surinam grass; test: Test B pre/postemergence surinam grass; type: in vivo, Brachiaria decumbens; conditions: for B. signalgrass plant response rating: scale of 0 to 10 where 0 is no effect and 10 is complete control
In short: as §1

[10] = tested on: sugar beet; test: Test B pre/postemergence sugar beet; type: in vivo, Beta vulgaris; conditions: for Sugarbeets plant response rating: scale of 0 to 10 where 0 is no effect and 10 is complete control
In short: as §1

[11] = tested on: wild oat; test: Test B pre/postemergence wild oat; type: in vivo, Avena fatua; conditions: for Wild oats plant response rating: scale of 0 to 10 where 0 is no effect and 10 is complete control
In short: as §1

[12] = tested on: corn; test: Test B pre/postemergence corn; type: in vivo, Zea mays; conditions: for Corn plant response rating: scale of 0 to 10 where 0 is no effect and 10 is complete control
In short: as §1

[13] = tested on: rice; test: Test B flood test rice; type: in vivo, Oryza sativa
In short: as §2

[14] = tested on: soybean; test: Test B pre/postemergence soybean; type: in vivo, Glycine max; conditions: for Soybean plant response rating: scale of 0 to 10 where 0 is no effect and 10 is complete control
In short: as §1

[15] = tested on: bamyardgrass; test: Test B flood test barnyardgrass; type: in vivo, Echinochloa crus-galli
In short: as §2

[16] = tested on: giant foxtail; test: Test B pre/postemergence giant foxtail; type: in vivo, Setaria faberii; conditions: for Giant foxtail plant response rating: scale of 0 to 10 where 0 is no effect and 10 is complete control
In short: as §1

[17] = Postemergence, Rate 125 g/ha, scale 0 to 10, 0 is no effect, 10 is complete control
[18] = Postemergence, Rate 250 g/ha, scale 0 to 10, 0 is no effect, 10 is complete control
[19] = Preemergence, Rate 62 g/ha, scale 0 to 10 (0 no effect, 10 complete control)
[20] = Rate 62 g/ha, flood test species, Pre-emergence, visual evaluation after twelve to sixteen days
[21] = Rate 125 g/ha, under heading Pre-emergence, flood test species, visual evaluation after twelve to sixteen days
[22] = Rate 250 g/ha, Pre-emergence, flood-test species, scale 0 to 10, 0 is no effect, 10 is complete control
[23] = Rate 500 g/ha, Pre-emergence, flood test species, scale 0 to 10 (0 no effect, 10 complete control)

Structure (SMILES): CC(C)N(C(=O)n1oc(=O)n(CCC#N)c1=O)c1ccc(F)cc1 [Compound 388]
- Plant response rating, Crabgrass [1, 17]: 4
- Plant response rating, Crabgrass [1, 18]: 8
- Crabgrass plant response rating ([1]; Postemergence, Rate 500 g/ha): 9
- Plant response rating, Crabgrass [1, 19]: 6
- Crabgrass plant response rating (0 to 10 scale) ([1]; Preemergence, Rate 125 g/ha): 8
- Crabgrass plant response rating ([1]; Preemergence, Rate 250 g/ha): 10
- Crabgrass plant response rating ([1]; Preemergence, Rate 500 g/ha): 10
- Crabgrass plant response rating ([1]; Rate 62 g/ha, Postemergence): 4
- Plant response rating, Redroot pigweed [2, 17]: 0
- Plant response rating, Redroot pigweed [2, 18]: 0
- Redroot pigweed plant response rating ([2]; Postemergence, Rate 500 g/ha): 3
- Plant response rating, Redroot pigweed [2, 19]: 0
- Redroot pigweed plant response rating (0 to 10 scale) ([2]; Preemergence, Rate 125 g/ha): 0
- Redroot pigweed plant response rating ([2]; Preemergence, Rate 250 g/ha): 6
- Redroot pigweed plant response rating ([2]; Preemergence, Rate 500 g/ha): 10
- Redroot pigweed plant response rating ([2]; Rate 62 g/ha, Postemergence): 0
- Plant response rating, Velvetleaf [3, 17]: 2
- Plant response rating, Velvetleaf [3, 18]: 2
- Velvetleaf plant response rating ([3]; Postemergence, Rate 500 g/ha): 6
- Plant response rating, Velvetleaf [3, 19]: 0
- Velvetleaf plant response rating (0 to 10 scale) ([3]; Preemergence, Rate 125 g/ha): 2
- Velvetleaf plant response rating ([3]; Preemergence, Rate 250 g/ha): 2
- Velvetleaf plant response rating ([3]; Preemergence, Rate 500 g/ha): 6
- Velvetleaf plant response rating ([3]; Rate 62 g/ha, Postemergence): 0
- Plant response rating, S. Flatsedge (0 to 10 scale, 0 is no effect, 10 is complete control) [4, 20]: 0
- S. Flatsedge plant response rating (0 to 10 scale, 0 is no effect, 10 is complete control) [4, 21]: 0
- S. Flatsedge plant response rating [4, 22]: 0
- S. Flatsedge plant response rating [4, 23]: 0
- Plant response rating, Nutsedge [5, 18]: 5
- Nutsedge plant response rating ([5]; Postemergence, Rate 500 g/ha): 6
- Plant response rating, Nutsedge [5, 19]: 0
- Nutsedge plant response rating (0 to 10 scale) ([5]; Preemergence, Rate 125 g/ha): 0
- Nutsedge plant response rating ([5]; Preemergence, Rate 250 g/ha): 0
- Plant response rating, Blackgrass [6, 17]: 8
- Blackgrass plant response rating ([6]; Postemergence, Rate 500 g/ha): 10
- Plant response rating, Blackgrass [6, 19]: 0
- Blackgrass plant response rating (0 to 10 scale) ([6]; Preemergence, Rate 125 g/ha): 1
- Blackgrass plant response rating ([6]; Preemergence, Rate 250 g/ha): 5
- Blackgrass plant response rating ([6]; Preemergence, Rate 500 g/ha): 6
- Bedstraw plant response rating ([7]; Postemergence): 6
- Bedstraw plant response rating ([7]; Preemergence): 7
- Plant response rating, Cocklebur [8, 17]: 0
- Plant response rating, Cocklebur [8, 18]: 0
- Cocklebur plant response rating ([8]; Postemergence, Rate 500 g/ha): 0
- Plant response rating, Cocklebur [8, 19]: 0
- Cocklebur plant response rating (0 to 10 scale) ([8]; Preemergence, Rate 125 g/ha): 0
- Cocklebur plant response rating ([8]; Preemergence, Rate 250 g/ha): 0
- Cocklebur plant response rating ([8]; Preemergence, Rate 500 g/ha): 0
- Cocklebur plant response rating ([8]; Rate 62 g/ha, Postemergence): 0
- Plant response rating, B. signalgrass [9, 17]: 6
- Plant response rating, B. signalgrass [9, 18]: 8
- B. signalgrass plant response rating ([9]; Postemergence, Rate 500 g/ha): 8
- Plant response rating, B. signalgrass [9, 19]: 0
- B. signalgrass plant response rating (0 to 10 scale, 0 is no effect, 10 is complete control) ([9]; Preemergence, Rate 125 g/ha): 2
- B. signalgrass plant response rating ([9]; Preemergence, Rate 250 g/ha): 3
- B. signalgrass plant response rating ([9]; Preemergence, Rate 500 g/ha): 6
- B. signalgrass plant response rating ([9]; Rate 62 g/ha, Postemergence): 1
- Plant response rating, Sugarbeets [10, 17]: 0
- Plant response rating, Sugarbeets [10, 18]: 0
- Sugarbeets plant response rating ([10]; Postemergence, Rate 500 g/ha): 4
- Plant response rating, Sugarbeets [10, 19]: 0
- Sugarbeets plant response rating (0 to 10 scale) ([10]; Preemergence, Rate 125 g/ha): 2
- Sugarbeets plant response rating ([10]; Preemergence, Rate 250 g/ha): 3
- Sugarbeets plant response rating ([10]; Preemergence, Rate 500 g/ha): 6
- Sugarbeets plant response rating ([10]; Rate 62 g/ha, Postemergence): 0
- Plant response rating, Wild oats [11, 17]: 0
- Plant response rating, Wild oats [11, 18]: 0
- Wild oats plant response rating ([11]; Postemergence, Rate 500 g/ha): 6
- Plant response rating, Wild oats [11, 19]: 3
- Wild oats plant response rating (0 to 10 scale) ([11]; Preemergence, Rate 125 g/ha): 6
- Wild oats plant response rating ([11]; Preemergence, Rate 250 g/ha): 10
- Wild oats plant response rating ([11]; Preemergence, Rate 500 g/ha): 10
- Wild oats plant response rating ([11]; Rate 62 g/ha, Postemergence): 0
- Plant response rating, Corn [12, 17]: 0
- Plant response rating, Corn [12, 18]: 0
- Corn plant response rating ([12]; Postemergence, Rate 500 g/ha): 0
- Plant response rating, Corn [12, 19]: 0
- Corn plant response rating (0 to 10 scale) ([12]; Preemergence, Rate 125 g/ha): 0
- Corn plant response rating ([12]; Preemergence, Rate 500 g/ha): 9
- Corn plant response rating ([12]; Rate 62 g/ha, Postemergence): 0
- Plant response rating, Rice (0 to 10 scale, 0 is no effect, 10 is complete control) [13, 20]: 0
- Rice plant response rating (0 to 10 scale, 0 is no effect, 10 is complete control) [13, 21]: 0
- Rice plant response rating [13, 22]: 0
- Rice plant response rating [13, 23]: 0
- Plant response rating, Soybean [14, 17]: 1
- Plant response rating, Soybean [14, 18]: 1
- Soybean plant response rating ([14]; Postemergence, Rate 500 g/ha): 1
- Plant response rating, Soybean [14, 19]: 0
- Soybean plant response rating (0 to 10 scale) ([14]; Preemergence, Rate 125 g/ha): 0
- Soybean plant response rating ([14]; Preemergence, Rate 250 g/ha): 0
- Soybean plant response rating ([14]; Preemergence, Rate 500 g/ha): 4
- Soybean plant response rating ([14]; Rate 62 g/ha, Postemergence): 1
- Plant response rating, Barnyardgrass (0 to 10 scale, 0 is no effect, 10 is complete control) [15, 20]: 0
- Barnyardgrass plant response rating (0 to 10 scale, 0 is no effect, 10 is complete control) [15, 21]: 0
- Barnyardgrass plant response rating [15, 22]: 0
- Barnyardgrass plant response rating [15, 23]: 0
- Plant response rating, Giant foxtail [16, 17]: 8
- Plant response rating, Giant foxtail [16, 18]: 8
- Giant foxtail plant response rating ([16]; Postemergence, Rate 500 g/ha): 9
- Plant response rating, Giant foxtail [16, 19]: 8
- Giant foxtail plant response rating (0 to 10 scale) ([16]; Preemergence, Rate 125 g/ha): 8
- Giant foxtail plant response rating ([16]; Preemergence, Rate 250 g/ha): 10
- Giant foxtail plant response rating ([16]; Preemergence, Rate 500 g/ha): 10
- Giant foxtail plant response rating ([16]; Rate 62 g/ha, Postemergence): 7

From patent publication US6737383B1, “Herbicidal oxadiazolidines” (priority 1999, dated 2004)
